The source of these data is patent US8735584B2 (Merck Patent GmbH, priority 2008, dated 2014).

What all share (assay type): biochemical
One test has as its target T1, AKT1 (Homo sapiens, UniProt P31749).
T1 construct: purchased Caliper Life Sciences
Description: Desktop Profiler kinase panel, AKT1. The note with it: 10 micromolar concentration of the compound; read-out: Percent Inhibition AKT1. The procedure: (§1) The Aurora assays described here are performed on two Caliper Life Sciences systems: the LC3000 and the Desktop Profiler. These provide data on enzyme activity via measurement of the relative amounts of phosphorylated or unphosphorylated fluorescently labelled substrate peptide at the end of an enzymatic reaction. These different states of peptide are resolved by applying a potential difference across the sample. The presence of the charged phosphate group on the product (as opposed to the substrate) causes a different peptide mobility between the two peptides. This is visualized by excitation of the fluorescent label on the substrate and product peptides and represented as peaks within the analysis software.
(§2) The Desktop Profiler utilizes the same principle as the LC3000 for calculating percentage conversion of a substrate to product. Caliper Life Sciences provides proprietary flash frozen pre-made 384 well plates containing selected kinases. Each column in the 384 well plate contains a particular selected kinase. A second plate, the ‘substrate plate’ contains a mix of fluorescently labeled peptide substrate and ATP. […]
(§3) Reading of the plate in the Profiler is identical to the LC3000, and the ratio between substrate and product peaks provides the activity of the enzyme in that well. […]

The next test concerns the target T2, Erk1 (Homo sapiens, UniProt P27361).
T2 construct: purchased Caliper Life Sciences
Description: Desktop Profiler kinase panel, Erk1. Particulars: 10 micromolar concentration of the compound; read-out: Percent Inhibition Erk1. How it is done: as §1, §2, §3

Another test concerns the target T3, Erk2 (Homo sapiens, UniProt P28482).
T3 construct: purchased Caliper Life Sciences
Description: Desktop Profiler kinase panel, Erk2. Particulars: 10 micromolar concentration of the compound; read-out: Percent Inhibition Erk2. The procedure:
as §1, §2, §3

A further test has as its target T4, FYN (Homo sapiens, UniProt P06241).
T4 construct: purchased Caliper Life Sciences
Put plainly: Desktop Profiler kinase panel, FYN. The note with it: 10 micromolar concentration of the compound; read-out: Percent Inhibition FYN. How it is done: as §1
(§4) The Desktop Profiler utilizes the same principle as the LC3000 for calculating percentage conversion of a substrate to product. Caliper Life Sciences provides proprietary flash frozen pre-made 384 well plates containing selected kinases. Each column in the 384 well plate contains a particular selected kinase. A second plate, the ‘substrate plate’ contains a mix of fluorescently labeled peptide substrate and ATP. These are arranged in columns so that transfer for substrate plate to enzyme plate provides the correct enzyme with the correct substrate/ATP concentration. Compounds are added to a thawed enzyme plate in the desired format, in single concentrations. Reactions are initiated by transfer of the substrate/ATP mix from the substrate plate. The enzyme plate is incubated for 90 mins at 25 C. The reaction is stopped by addition of 70 ul of Stop Buffer (100 mM HEPES pH 7.5, 0.015% Brij-35, 10 mM EDTA (Sigma, E7889)).
(§5) Reading of the plate in the Profiler is identical to the LC3000, and the ratio between substrate and product peaks provides the activity of the enzyme in that well. This is best represented by a plate heat map which colors each well by percent inhibition as compared to positive and negative controls (no inhibitors and no ATP respectively).
(§6) In the following Tables 3a-4-b, which show the results of the desktop profiler measurements, “+” means 50-70% inhibition, “++” means 70-90% inhibition, and “+++” means >90% inhibition. The enzymes tested for profiling were ABL, AKT1, AKT2, AurA, CHK1, CHK2, CK1d, Erk1, Erk2, FYN, GSK3b, INSR, LCK, LYN, MAPKAPK2, MET, MSK1, p38a, PKA, PKCz, PKD2, PRAK, RSK1 and SRC.

For another test, the target named is T5, LCK (Homo sapiens, UniProt P06239).
T5 construct: purchased Caliper Life Sciences
Description: Desktop Profiler kinase panel, LCK. Particulars: 10 micromolar concentration of the compound; read-out: Percent Inhibition LCK. How it is done:
as §1, §4, §5, §6

The next test deals with T6, MAPKAPK2 (Homo sapiens, UniProt P49137).
T6 construct: purchased Caliper Life Sciences
Description: Desktop Profiler kinase panel, MAPKAPK2. The note with it: 10 micromolar concentration of the compound; read-out: Percent Inhibition MAPKAPK2. How it is done:
as §1, §2, §3

The target of the next test is T7, MSK1 (Homo sapiens, UniProt O75582).
T7 construct: purchased Caliper Life Sciences
Description: Desktop Profiler kinase panel, MSK1. The note with it: 10 micromolar concentration of the compound; read-out: Percent Inhibition MSK1. The procedure:
as §1, §4
(§7) Reading of the plate in the Profiler is identical to the LC3000, and the ratio between substrate and product peaks provides the activity of the enzyme in that well. This is best represented by a plate heat map which colors each well by percent inhibition as compared to positive and negative controls (no inhibitors and no ATP respectively). […]

A further test addresses T8, PKA (Homo sapiens, UniProt P17612).
T8 construct: purchased Caliper Life Sciences
Description: Desktop Profiler kinase panel, PKA. Particulars: 10 micromolar concentration of the compound; read-out: Percent Inhibition PKA. The procedure:
as §1, §4, §5, §6

The next test has as its target T9, PKCz (Homo sapiens, UniProt Q05513).
T9 construct: purchased Caliper Life Sciences
Description: Desktop Profiler kinase panel, PKCz. The note with it: 10 micromolar concentration of the compound; read-out: Percent Inhibition PKCz. How it is done:
as §1, §2, §3

The target in a further test is T10, PRAK (Homo sapiens, UniProt Q8IW41).
T10 construct: purchased Caliper Life Sciences
T10 sequence (Q8IW41 1-473): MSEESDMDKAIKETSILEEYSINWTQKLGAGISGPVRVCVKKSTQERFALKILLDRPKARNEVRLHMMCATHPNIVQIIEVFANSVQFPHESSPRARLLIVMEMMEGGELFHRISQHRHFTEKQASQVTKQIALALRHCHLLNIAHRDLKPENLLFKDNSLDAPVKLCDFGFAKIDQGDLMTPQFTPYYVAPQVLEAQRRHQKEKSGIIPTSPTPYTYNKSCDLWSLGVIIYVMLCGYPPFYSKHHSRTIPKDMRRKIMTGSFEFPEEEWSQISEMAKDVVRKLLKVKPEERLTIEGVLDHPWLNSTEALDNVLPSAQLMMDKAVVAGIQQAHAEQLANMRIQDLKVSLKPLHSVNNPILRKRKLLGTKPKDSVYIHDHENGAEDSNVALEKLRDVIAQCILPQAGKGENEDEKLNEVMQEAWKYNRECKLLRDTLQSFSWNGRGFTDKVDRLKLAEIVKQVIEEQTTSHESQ
Description: Desktop Profiler kinase panel, PRAK. Particulars: 10 micromolar concentration of the compound; read-out: Percent Inhibition PRAK. The procedure: as §1, §4, §7

T7 sequence (O75582 whole entry, species assumed): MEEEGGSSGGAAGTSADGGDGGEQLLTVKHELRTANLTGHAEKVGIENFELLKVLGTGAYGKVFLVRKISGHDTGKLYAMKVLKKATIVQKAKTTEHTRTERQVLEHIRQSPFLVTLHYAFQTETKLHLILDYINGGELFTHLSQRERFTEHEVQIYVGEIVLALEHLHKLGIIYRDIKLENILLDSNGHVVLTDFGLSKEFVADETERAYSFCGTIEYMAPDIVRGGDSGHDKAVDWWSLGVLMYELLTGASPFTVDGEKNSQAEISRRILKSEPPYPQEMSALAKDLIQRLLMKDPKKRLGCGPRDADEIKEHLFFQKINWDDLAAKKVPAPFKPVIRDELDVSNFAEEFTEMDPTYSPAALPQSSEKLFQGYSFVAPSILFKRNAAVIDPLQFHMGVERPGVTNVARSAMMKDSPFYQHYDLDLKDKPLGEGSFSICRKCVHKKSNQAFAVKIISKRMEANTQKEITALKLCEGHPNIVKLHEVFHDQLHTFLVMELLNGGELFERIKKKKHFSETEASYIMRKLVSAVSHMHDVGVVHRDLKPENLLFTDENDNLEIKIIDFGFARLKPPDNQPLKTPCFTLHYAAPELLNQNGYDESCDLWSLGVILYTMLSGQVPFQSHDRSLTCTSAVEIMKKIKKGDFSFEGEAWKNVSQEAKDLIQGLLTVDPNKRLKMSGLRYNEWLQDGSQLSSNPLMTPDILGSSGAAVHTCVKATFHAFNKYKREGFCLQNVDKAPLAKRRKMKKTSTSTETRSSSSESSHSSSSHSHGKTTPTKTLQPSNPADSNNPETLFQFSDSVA
T4 sequence (P06241 whole entry, species assumed): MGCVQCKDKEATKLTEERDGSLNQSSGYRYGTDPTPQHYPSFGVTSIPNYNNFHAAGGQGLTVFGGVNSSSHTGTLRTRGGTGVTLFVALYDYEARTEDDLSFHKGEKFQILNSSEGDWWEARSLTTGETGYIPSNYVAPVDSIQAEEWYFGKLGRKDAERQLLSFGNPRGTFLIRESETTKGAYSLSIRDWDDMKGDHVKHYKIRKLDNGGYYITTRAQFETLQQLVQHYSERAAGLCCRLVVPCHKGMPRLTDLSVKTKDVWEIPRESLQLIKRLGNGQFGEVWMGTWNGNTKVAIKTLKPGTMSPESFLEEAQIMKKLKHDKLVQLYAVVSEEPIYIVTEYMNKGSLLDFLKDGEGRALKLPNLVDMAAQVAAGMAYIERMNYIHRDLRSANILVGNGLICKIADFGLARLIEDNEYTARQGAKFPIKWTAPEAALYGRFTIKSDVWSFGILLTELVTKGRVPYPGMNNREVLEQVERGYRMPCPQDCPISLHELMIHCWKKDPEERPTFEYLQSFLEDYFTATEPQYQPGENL
T3 sequence (P28482 whole entry, species assumed): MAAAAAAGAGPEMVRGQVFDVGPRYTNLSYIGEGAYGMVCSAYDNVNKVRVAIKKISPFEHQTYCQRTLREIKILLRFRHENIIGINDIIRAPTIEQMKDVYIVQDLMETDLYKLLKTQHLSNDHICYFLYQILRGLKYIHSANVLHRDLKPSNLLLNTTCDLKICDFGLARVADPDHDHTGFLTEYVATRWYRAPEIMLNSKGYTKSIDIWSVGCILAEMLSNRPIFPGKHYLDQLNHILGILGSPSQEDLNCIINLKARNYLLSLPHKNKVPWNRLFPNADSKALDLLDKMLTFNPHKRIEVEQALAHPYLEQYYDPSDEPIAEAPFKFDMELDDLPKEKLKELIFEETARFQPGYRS
T5 sequence (P06239 whole entry, species assumed): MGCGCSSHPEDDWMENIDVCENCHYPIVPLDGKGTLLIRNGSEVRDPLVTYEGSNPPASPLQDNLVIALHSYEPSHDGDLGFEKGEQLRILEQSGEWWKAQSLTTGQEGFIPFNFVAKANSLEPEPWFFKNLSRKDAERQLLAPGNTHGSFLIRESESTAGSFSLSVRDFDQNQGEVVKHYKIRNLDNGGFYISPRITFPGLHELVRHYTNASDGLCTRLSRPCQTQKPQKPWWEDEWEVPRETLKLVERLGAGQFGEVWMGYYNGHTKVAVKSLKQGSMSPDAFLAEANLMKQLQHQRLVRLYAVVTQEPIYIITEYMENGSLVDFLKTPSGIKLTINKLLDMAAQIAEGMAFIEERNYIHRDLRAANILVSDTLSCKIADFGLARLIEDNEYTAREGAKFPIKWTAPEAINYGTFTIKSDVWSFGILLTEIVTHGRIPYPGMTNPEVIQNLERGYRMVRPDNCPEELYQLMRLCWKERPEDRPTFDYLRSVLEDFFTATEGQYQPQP
T2 sequence (P27361 whole entry, species assumed): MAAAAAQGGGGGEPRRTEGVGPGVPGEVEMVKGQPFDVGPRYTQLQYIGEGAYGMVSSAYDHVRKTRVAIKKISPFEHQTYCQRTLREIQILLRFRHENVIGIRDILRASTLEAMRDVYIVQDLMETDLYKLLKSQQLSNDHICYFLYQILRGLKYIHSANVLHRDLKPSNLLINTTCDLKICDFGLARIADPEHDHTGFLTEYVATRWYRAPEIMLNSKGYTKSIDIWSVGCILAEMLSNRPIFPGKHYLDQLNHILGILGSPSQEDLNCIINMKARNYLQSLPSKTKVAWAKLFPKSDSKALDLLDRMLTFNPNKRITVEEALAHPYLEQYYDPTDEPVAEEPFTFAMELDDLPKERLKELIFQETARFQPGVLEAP
T6 sequence (P49137 whole entry, species assumed): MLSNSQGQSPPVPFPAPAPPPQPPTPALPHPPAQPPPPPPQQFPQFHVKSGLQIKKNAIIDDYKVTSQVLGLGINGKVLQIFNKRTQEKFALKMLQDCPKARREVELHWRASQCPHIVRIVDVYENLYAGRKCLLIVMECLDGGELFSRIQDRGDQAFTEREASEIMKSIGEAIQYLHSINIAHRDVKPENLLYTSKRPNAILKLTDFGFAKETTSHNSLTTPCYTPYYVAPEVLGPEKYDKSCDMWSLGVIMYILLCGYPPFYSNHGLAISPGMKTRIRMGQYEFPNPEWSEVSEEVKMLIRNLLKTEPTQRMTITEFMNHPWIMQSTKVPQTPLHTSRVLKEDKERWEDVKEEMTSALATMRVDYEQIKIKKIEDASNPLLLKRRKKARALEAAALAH
T1 sequence (P31749 whole entry, species assumed): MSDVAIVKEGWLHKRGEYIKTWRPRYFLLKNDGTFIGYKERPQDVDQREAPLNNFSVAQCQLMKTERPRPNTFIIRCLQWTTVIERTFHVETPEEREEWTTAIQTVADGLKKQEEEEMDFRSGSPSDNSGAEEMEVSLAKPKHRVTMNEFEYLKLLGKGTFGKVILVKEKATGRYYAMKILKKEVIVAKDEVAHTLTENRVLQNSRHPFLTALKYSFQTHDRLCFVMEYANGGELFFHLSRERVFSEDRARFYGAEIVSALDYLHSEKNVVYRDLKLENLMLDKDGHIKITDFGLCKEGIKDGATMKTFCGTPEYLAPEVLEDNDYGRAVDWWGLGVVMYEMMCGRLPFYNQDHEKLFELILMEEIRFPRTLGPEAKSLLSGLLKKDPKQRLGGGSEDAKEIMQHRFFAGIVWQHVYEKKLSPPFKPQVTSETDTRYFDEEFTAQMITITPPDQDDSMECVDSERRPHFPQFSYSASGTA
T9 sequence (Q05513 whole entry): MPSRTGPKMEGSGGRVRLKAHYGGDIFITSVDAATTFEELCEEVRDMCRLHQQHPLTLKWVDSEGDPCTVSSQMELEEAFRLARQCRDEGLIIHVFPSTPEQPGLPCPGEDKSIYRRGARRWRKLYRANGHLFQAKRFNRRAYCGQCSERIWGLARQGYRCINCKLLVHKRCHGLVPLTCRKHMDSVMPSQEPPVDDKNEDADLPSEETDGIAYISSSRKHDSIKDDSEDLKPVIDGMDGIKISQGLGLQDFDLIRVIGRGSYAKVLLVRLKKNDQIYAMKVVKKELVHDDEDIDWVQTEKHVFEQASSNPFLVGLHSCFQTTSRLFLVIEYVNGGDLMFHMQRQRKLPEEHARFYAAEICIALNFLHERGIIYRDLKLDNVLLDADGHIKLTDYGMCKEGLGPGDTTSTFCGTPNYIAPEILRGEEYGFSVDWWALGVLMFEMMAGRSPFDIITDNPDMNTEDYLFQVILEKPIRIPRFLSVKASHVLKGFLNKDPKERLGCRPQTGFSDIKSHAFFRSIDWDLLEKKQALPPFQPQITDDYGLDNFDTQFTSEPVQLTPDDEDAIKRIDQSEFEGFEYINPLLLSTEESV

By inhibition is commonly meant the percentage by which the read-out fell short of the control. Consider `CC(=O)Nc1ccc(Oc2ccc3c(=O)[nH]c4ncccc4c3c2)cc1` [Example 81, N-[4-(6-Oxo-5,6-dihydro-benzo[c][1,8]naphthyridin-9-yloxy)-phenyl]-acetamide], for which the inhibition at 10 µM is more than 90% at AKT1; 70 to 90% at Erk1; 70 to 90% on Erk2; more than 90% on FYN; more than 90% on LCK; 50 to 70% at MAPKAPK2. In addition, the inhibition at 10 µM was more than 90% on MSK1, more than 90% on PKA, 50 to 70% at PKCz and 70 to 90% on PRAK.
`O=c1[nH]c2ncccc2c2cc(Nc3cccc(F)c3)ccc12` [Example 31, 9-(3-Fluoro-phenylamino)-5H-benzo[c][1,8]naphthyridin-6-one]: the inhibition at 10 µM on AKT1 was 70 to 90%; at Erk1 it was 70 to 90%; on Erk2, 70 to 90%; on FYN it was 70 to 90%; at LCK it was more than 90%; on MSK1, 70 to 90%. In addition, the inhibition at 10 µM on PKA was more than 90%; at PRAK it was 70 to 90%.
As to `NC(=O)c1ccc(Oc2ccc3c(=O)[nH]c4ncccc4c3c2)cc1` [Example 82], the inhibition at 10 µM on FYN was more than 90%; on MAPKAPK2, more than 90%; at MSK1, 50 to 70%; on PKA, 70 to 90%; on PRAK, more than 90%.
